Like-named read-outs stand apart in the source and are kept apart here.
Experiments:
Test in all cases: SelectScreen Kinase Profiling, single point inhibition and IC50 for off-target kinases
Type in all cases: biochemical
off-target kinases [1] = target: off-target kinases (Homo sapiens, UniProt O43353); conditions: RIPK2, LanthaScreen Binding
off-target kinases [2] = target: off-target kinases (Homo sapiens, UniProt P30530); conditions: AXL, ZLYTE, ATP Km app
off-target kinases [3] = target: off-target kinases (Homo sapiens, UniProt P37023); conditions: ACVRL1 (ALK1), LanthaScreen Binding
off-target kinases [4] = target: off-target kinases (Homo sapiens, UniProt P42345); conditions: FRAP1 (mTOR), ZLYTE, ATP Km app
off-target kinases [5] = target: off-target kinases (Homo sapiens, UniProt P53355); conditions: DAPK1, ATP Km app, Adapta
off-target kinases [6] = target: off-target kinases (Homo sapiens, UniProt Q8N4C8); conditions: MINK1, ATP Km app, ZLYTE
off-target kinases [7] = target: off-target kinases (Homo sapiens, UniProt Q9H2X6); conditions: HIPK2, ZLYTE, ATP Km app
off-target kinases [8] = target: T1, off-target kinases (Homo sapiens, UniProt Q9HBY8); conditions: SGK2, ZLYTE, ATP Km app
T1 sequence (Q9HBY8 1-367): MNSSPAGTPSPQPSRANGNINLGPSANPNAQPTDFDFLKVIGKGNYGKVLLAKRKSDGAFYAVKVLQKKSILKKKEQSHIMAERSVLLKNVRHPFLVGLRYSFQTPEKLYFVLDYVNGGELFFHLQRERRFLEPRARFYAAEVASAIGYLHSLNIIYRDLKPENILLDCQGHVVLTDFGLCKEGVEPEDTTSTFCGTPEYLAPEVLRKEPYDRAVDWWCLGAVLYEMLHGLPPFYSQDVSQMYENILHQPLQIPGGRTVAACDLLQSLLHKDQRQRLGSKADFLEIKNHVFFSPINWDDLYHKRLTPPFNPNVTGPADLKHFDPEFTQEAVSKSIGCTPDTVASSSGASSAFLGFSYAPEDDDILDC

off-target kinases [9] = target: T2, off-target kinases (Homo sapiens, UniProt Q9NWZ3); conditions: IRAK4, ZLYTE, ATP Km app
T2 sequence (Q9NWZ3 1-460): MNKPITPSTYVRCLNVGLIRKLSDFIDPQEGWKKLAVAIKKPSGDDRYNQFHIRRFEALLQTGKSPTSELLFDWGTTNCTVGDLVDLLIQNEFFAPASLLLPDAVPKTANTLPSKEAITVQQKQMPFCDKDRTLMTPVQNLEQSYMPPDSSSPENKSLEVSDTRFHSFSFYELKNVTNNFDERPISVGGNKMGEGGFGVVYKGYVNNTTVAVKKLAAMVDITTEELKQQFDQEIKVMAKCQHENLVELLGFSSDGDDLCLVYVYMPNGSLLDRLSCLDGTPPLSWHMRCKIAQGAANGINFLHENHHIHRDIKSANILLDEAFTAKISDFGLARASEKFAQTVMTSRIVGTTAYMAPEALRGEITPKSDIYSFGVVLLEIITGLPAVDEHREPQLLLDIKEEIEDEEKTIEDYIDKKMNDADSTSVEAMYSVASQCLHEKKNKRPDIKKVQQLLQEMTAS

off-target kinases [10] = target: off-target kinases (Homo sapiens, UniProt Q9NYL2); conditions: ZAK, LanthaScreen Binding

Sequence of off-target kinases (Homo sapiens, UniProt Q8N4C8) (Q8N4C8 whole entry): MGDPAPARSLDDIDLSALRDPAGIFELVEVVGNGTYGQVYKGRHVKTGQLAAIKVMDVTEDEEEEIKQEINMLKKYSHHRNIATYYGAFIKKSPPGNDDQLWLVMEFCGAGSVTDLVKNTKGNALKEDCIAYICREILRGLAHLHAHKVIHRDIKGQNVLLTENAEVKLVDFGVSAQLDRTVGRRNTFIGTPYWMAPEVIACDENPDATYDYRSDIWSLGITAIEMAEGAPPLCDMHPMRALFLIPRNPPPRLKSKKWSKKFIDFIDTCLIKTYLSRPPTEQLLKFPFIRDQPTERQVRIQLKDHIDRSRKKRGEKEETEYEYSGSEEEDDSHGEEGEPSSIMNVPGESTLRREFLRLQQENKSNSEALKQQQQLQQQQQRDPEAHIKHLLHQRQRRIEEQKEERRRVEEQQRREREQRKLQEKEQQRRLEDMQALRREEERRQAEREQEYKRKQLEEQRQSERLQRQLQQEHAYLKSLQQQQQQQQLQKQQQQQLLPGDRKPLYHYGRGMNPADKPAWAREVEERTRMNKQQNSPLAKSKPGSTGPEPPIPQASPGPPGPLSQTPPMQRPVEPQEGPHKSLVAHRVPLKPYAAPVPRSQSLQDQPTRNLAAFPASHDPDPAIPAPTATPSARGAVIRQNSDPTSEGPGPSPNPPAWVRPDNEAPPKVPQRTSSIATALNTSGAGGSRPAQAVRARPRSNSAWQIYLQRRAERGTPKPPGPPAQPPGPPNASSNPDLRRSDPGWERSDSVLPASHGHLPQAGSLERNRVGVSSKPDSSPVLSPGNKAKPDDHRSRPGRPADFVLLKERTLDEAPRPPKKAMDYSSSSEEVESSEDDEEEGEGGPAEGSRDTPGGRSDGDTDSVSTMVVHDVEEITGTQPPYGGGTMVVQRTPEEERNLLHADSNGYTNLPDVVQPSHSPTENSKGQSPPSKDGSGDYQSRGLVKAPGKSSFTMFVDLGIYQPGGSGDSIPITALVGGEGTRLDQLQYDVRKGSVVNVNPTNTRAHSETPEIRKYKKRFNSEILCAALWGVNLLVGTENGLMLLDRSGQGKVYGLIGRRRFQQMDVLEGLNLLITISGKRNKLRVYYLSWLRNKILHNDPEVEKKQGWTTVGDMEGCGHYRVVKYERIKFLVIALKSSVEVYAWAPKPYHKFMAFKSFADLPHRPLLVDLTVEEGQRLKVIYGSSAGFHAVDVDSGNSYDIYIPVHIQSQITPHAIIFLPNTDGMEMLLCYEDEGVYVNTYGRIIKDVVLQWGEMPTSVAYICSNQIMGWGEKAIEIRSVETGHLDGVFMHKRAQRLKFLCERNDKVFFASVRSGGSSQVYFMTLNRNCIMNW
Sequence of off-target kinases (Homo sapiens, UniProt O43353) (O43353 whole entry): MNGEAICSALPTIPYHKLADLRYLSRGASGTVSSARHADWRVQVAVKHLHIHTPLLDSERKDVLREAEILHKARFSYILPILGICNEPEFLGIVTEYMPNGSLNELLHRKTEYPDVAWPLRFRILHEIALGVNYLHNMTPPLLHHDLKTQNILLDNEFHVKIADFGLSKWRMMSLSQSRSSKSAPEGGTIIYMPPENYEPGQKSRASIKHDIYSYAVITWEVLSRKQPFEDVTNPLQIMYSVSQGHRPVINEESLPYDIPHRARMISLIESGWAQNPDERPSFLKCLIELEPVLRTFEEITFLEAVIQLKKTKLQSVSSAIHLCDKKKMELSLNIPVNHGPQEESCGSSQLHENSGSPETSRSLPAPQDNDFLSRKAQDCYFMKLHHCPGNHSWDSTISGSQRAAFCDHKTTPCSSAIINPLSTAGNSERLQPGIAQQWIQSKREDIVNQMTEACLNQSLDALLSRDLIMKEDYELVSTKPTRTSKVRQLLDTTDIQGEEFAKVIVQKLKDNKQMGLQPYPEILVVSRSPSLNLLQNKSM
Sequence of off-target kinases (Homo sapiens, UniProt Q9H2X6) (Q9H2X6 whole entry): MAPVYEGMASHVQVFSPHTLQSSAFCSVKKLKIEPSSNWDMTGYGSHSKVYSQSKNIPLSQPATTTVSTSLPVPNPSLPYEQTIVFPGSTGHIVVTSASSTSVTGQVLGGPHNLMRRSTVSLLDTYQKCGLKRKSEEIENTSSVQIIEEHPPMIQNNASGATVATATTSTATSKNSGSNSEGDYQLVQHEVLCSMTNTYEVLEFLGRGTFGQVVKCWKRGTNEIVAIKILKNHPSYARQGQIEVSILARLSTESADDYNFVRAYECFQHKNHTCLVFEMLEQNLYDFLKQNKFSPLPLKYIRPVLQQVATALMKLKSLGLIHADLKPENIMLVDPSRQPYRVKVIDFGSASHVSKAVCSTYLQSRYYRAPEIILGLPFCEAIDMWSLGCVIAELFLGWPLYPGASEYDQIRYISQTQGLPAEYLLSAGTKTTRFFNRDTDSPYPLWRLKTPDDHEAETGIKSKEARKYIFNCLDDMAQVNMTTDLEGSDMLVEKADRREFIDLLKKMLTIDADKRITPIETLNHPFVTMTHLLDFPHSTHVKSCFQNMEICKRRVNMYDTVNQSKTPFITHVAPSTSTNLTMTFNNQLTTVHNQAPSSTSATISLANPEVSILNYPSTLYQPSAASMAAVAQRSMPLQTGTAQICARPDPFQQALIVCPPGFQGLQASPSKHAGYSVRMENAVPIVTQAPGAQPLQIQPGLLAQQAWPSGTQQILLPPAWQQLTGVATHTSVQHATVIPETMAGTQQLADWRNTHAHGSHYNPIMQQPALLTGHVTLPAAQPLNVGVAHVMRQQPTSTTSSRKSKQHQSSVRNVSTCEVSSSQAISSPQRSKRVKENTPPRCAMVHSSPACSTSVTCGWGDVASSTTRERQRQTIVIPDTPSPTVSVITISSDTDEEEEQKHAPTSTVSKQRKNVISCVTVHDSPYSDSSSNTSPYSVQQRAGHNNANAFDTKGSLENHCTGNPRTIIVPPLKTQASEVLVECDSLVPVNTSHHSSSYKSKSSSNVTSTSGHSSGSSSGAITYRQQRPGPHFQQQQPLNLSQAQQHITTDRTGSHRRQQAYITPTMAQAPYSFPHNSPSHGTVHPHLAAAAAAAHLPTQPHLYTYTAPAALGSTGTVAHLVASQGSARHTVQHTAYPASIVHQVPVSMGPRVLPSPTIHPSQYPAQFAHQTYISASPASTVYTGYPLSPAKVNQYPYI
Sequence of off-target kinases (Homo sapiens, UniProt P30530) (P30530 26-894): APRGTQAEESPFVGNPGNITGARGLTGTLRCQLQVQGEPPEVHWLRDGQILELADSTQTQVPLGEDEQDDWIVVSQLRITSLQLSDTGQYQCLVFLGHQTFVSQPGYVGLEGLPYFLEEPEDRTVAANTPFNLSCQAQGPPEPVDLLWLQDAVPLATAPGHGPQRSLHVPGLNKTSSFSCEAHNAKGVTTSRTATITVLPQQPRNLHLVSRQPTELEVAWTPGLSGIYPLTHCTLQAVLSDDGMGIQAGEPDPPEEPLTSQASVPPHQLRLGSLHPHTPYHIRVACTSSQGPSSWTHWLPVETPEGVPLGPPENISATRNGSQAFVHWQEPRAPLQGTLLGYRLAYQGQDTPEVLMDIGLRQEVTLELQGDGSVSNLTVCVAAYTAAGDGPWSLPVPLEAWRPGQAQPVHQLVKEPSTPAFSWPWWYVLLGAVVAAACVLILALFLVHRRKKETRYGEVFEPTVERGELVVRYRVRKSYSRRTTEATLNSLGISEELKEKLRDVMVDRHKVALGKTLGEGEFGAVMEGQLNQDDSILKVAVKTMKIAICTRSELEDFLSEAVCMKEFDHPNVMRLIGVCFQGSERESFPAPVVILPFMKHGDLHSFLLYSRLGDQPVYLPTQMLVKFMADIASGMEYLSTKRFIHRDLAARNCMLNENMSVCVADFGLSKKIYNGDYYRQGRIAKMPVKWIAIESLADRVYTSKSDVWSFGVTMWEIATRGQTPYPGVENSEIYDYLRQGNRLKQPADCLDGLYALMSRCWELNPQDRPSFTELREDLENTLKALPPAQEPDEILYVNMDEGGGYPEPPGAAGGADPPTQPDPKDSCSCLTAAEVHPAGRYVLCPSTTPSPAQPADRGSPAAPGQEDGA
Sequence of off-target kinases (Homo sapiens, UniProt P37023) (P37023 22-503): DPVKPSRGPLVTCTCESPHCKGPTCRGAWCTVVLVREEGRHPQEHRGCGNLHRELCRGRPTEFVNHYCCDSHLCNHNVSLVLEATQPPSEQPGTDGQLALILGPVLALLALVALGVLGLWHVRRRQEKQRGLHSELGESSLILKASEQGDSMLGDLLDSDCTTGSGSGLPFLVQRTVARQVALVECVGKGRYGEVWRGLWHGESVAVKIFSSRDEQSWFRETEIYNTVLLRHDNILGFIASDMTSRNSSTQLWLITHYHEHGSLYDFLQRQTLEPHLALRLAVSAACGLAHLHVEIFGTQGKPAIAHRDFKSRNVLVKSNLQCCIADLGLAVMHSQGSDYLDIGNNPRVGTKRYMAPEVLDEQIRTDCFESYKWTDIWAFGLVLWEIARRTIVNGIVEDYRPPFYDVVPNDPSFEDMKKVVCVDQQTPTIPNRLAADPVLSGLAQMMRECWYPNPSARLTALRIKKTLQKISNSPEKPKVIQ

## N#Cc1cc(-c2ncnc(Nc3ccc(N4CCN(C5COC5)CC4)cc3)n2)ccc1OC1CCOCC1 [Compound 1, 5-(4-((4-(4-(oxetan-3-yl)piperazin-1-yl)phenyl)amino)-1,3,5-triazin-2-yl)-2-((tetrahydro-2H-pyran-4-yl)oxy)benzonitrile]
off-target kinases [1]; read-out: % Inhibition 1
  inhibition: 84%
off-target kinases [1]; read-out: % Inhibition 2
  inhibition: 86%
off-target kinases [1]; read-out: % Inhibition Avg
  inhibition: 85%
off-target kinases [2]; read-out: % Inhibition 1
  inhibition: 22%
off-target kinases [2]; read-out: % Inhibition 2
  inhibition: 25%
off-target kinases [2]; read-out: % Inhibition Avg
  inhibition: 24%
off-target kinases [3]; read-out: % Inhibition 1
  inhibition: 33%
off-target kinases [3]; read-out: % Inhibition 2
  inhibition: 38%
off-target kinases [3]; read-out: % Inhibition Avg
  inhibition: 35%
off-target kinases [4]; read-out: % Inhibition 1
  inhibition: 2%
off-target kinases [4]; read-out: % Inhibition 2
  inhibition: 12%
off-target kinases [4]; read-out: % Inhibition Avg
  inhibition: 7%
off-target kinases [5]; read-out: % Inhibition 1
  inhibition: 42%
off-target kinases [5]; read-out: % Inhibition 2
  inhibition: 43%
off-target kinases [5]; read-out: % Inhibition Avg
  inhibition: 43%
off-target kinases [6]; read-out: % Inhibition 1
  inhibition: 66%
off-target kinases [6]; read-out: % Inhibition 2
  inhibition: 70%
off-target kinases [6]; read-out: % Inhibition Avg
  inhibition: 68%
off-target kinases [7]; read-out: % Inhibition 1
  inhibition: 21%
off-target kinases [7]; read-out: % Inhibition 2
  inhibition: 19%
off-target kinases [7]; read-out: % Inhibition Avg
  inhibition: 20%
off-target kinases [8]; read-out: % Inhibition 1
  inhibition: 7%
off-target kinases [8]; read-out: % Inhibition 2
  inhibition: 12%
off-target kinases [8]; read-out: % Inhibition Avg
  inhibition: 10%
off-target kinases [9]; read-out: % Inhibition 1
  inhibition: 5%
off-target kinases [9]; read-out: % Inhibition 2
  inhibition: 8%
off-target kinases [9]; read-out: % Inhibition Avg
  inhibition: 6%
off-target kinases [10]; read-out: % Inhibition 1
  inhibition: 6%
off-target kinases [10]; read-out: % Inhibition 2
  inhibition: 10%
off-target kinases [10]; read-out: % Inhibition Avg
  inhibition: 8%

Source: US11572590B2, “Methods for evaluating tumor cell spheroids using 3D microfluidic cell culture device” (Dana-Farber Cancer Institute, Inc., priority 2017, dated 2023)
